These results are taken from patent publication US20160158253A1, “TREATMENT OF PANCREATIC CANCER WITH A COMBINATION OF A HYPOXIA-ACTIVATED PRODRUG AND A TAXANE” (THRESHOLD PHARMACEUTICALS, INC., priority 2013, published 2016).

Series [1] deals with Hs766t human PDAC xenograft. Nature of the series: Antitumor activity in Hs766t PDAC xenograft model. The format is in vivo, nude mice. The conditions noted are these: for MT (Median Time to reaching the size of 1000 mm^3): Kaplan-Meier; for TGI (Tumor Growth Inhibition): T 50 mg/kg i.p., nP 30 mg/kg i.v., G 60 mg/kg i.p. The procedure: (§1) Dosing for the animal studies described below were selected as follows. In some current human clinical trials, TH-302 is given on once-a-week schedules (QW) of three weeks on, one week off (at a dose of 240 or 340 mg/m^2). […] In xenograft models, gemcitabine is administered at 60 or 80 mg/kg in four three-day cycles (Q3D×4) (Teicher et al., Cancer Res. 6:1016, 2000; Marriman et at., invest New Drugs. 14:243, 1996). […] The therapy was administered every three days for five cycles (Q3D×5).
(§2) The animal studies were conducted using, xenograft models for pancreatic ductal adenocarcinoma (PDAC). Tumors were generated in the flanks of nude mice by subcutaneous injection of established human PDAC cell lines. Four PDAC xenograft models were established by subcutaneous implantation of either Hs766t, MIA PaCa-2, PANC-1 or BxPC-3 cells into the flank of nude mice. Mice were implanted subcutaneously in the right flank with 5×10^6 cells in 30% Matrilgel™ at a dose volume of 200 μL. Mice bearing similar tumor size were randomly assigned into different groups when tumor size reached 150 mm^3. […] Antitumor activity of the G+nP+T triplet combination therapy was assessed, and compared with the G+nP doublet combination therapy.
(§3) Tumor growth delay 1000 mm^3 (TGD1000) was determined as the difference in time required for the mean tumor size to reach 1000 mm^3 between treated group and vehicle control group. TGD1000 of T monotherapy and G+nP doublet combination therapy groups was 47 and 35 days, respectively, while TGD1000 of G+nP+T triplet combination therapy group was 53 days. […] (see Table 1, below).
(§4) In three of the four models, the triplet combination therapy increased the complete response rate (CR) relative to the G+nP combination therapy or the T monotherapy. CR was defined as disappearance of tumor or tumor size is <100 mm^3 at a study point. Of note, the CR rate of the G+nP+T combination therapy in the PANC-1 model reached 100%, compared to 0% and 60% in the T monotherapy and G+nP combination therapy groups, respectively. In the MIA PaCa-2 model, CR rate in the triplet group was 90%, compared to 0 and 10% in the T monotherapy and G+nP doublet combination therapy groups, respectively.

Series [2] has as its system MIA PaCa-2 human PDAC xenograft. Nature of the series: Antitumor activity in MIA PaCa-2 PDAC xenograft model. It is filed as in vivo, nude mice. The procedure: as §1, §2, §3, §4
Series [3] relates to PANC-1 human PDAC xenograft. Nature of the series: Antitumor activity in PANC-1 PDAC xenograft model. It is filed as in vivo, nude mice. The procedure: as §1, §2, §3, §4
For series [4], the system named is BxPC-3 human PDAC xenograft. The series is described as follows: Antitumor activity in BxPC-3 PDAC xenograft model. It is filed as in vivo, nude mice. The procedure: as §1, §2, §3, §4
Series [5] in a line: Treatment-induced body weight loss in PDAC tumor bearing and CD-1 non-tumor bearing mice. It is filed as in vivo. The procedure:
Another series of studies were conducted to investigate the treatment-induced body weight (BW) loss in both PDAC tumor bearing animals and CD-1 immunocompetent mice. Body weight was measured daily or twice a week.

A short description of series [6]: Hematological testing (Hemavet 950 blood analyzer). It is filed as in vivo, PANC-1 tumor bearing nude mice and CD-1 mice. The following applies: 24 hrs after last treatment; T and G+nP vs V, triplet vs G+nP. The procedure:
To determine the effect of combination therapy on hematopoiesis, the same treatment was employed in PANC-1 tumor bearing nude mice as well as immunocompetent CD-1 mice. Twenty-four hrs. after the last treatment, the animals were euthanized under CO2, blood was collected via heart puncture, and hematological analysis was performed using a Hemavet 950™ blood analyzer. As shown in FIG. 2 (mean±SEM), G+nP combination therapy or T monotherapy reduced neutrophils, lymphocytes, and monocytes, and complete white blood cell count (WBC), compared with V(*p<0.05 compared with V).

A further series deals with PANC-1 xenograft tumors. Nature of the series: Pharmacodynamic biomarkers by histology, immunohistochemistry or in situ assay in PANC-1 tumors. It is filed as in vivo, nude mice. The procedure: We used a panel of biomakers to characterize Hs766t, MIA PaCa-2, PANC-1 and BxPC3 xenograft tumors. […] We chose a moderate hypoxic level tumor model, PANC-1, to investigate the pharmacodynamic changes caused by the different treatments, PANC-1 tumor-bearing animals were treated with vehicle, TH-302, G+nP, and G+nP+T when tumor size was approximately 500 mm^3. One day after the last treatment, tumors were harvested, fixed, paraffin-embedded, and sectioned for staining with a panel of histology and immunohistochemistry markers.
Similar to as observed for apoptosis, γH2AX-positive cells were increased in all three drug treated groups compared with V. 31±1.3 positive cells/field in the G+nP+T triplet group, compared with 19 in T alone or G+nP and less than 4 in V (p<0.05). Cells with DNA damage were evenly distributed in both the hypoxic and oxic compartments in non-necrotic regions. Ki67 is a marker of cell proliferation, labeling all active phases of the cell cycle including S, G2, and mitosis.
To determine the effect of combination therapy on tumor microenvironment, tumor stroma and hypoxia were investigated. Tumor stroma is composed of extracellular matrix protein and cellular elements. Thus, collagen I and III, as main parts of extracellular matrix were evaluated by Picrosirius red staining. Activated fibroblasts in the stroma were analyzed by α-SMA. […] There was no co-localization between exogenous pimonidazole- and endogenous CAIX-positive cells, CA-IX was found in the necrotic cells as well.

Series [7] can be described thus: von Frey neuropathy assay (mechanical hyperalgesia). The format is in vivo. The following applies: male CD-1 mice; compared to V, from 9 days after initiation of treatment. The procedure: To determine the effect of combination therapy on the nervous system, male CD-1 mice were randomly divided into 4 groups with 10 mice each. Mechanical hyperalgesia tests were performed prior to the initial treatment and during the study by a trained observer who was unaware of the animal group identities. […] This hyperalgesia persisted to 37 days with peaks at day 16 and day 23 (p<0.001, two-way ANOVA), and gradually returned to baseline at day 43. […] There was no difference between G+nP+T combination therapy treated and G+nP combination therapy treated animals.

Series [8] has as its system cell lines with mutations in BRCA1 or BRCA2. The series is described as follows: Sensitivity of BRCA1 or BRCA2 mutated cell lines to TH-302. It is filed as cell-based. The text has this: A human clinical trial can include analysis of any of a series of biomarkers. […] The prevalence of BRCA1 and BRCA2 mutations in pancreatic cancer patients is between 5% and 19%, Thus, a trial can include collection of serum, plasma, and tissue samples for analysis of any markers useful for identifying suitable patient populations and/or liar monitoring the course of therapy.

Series [9] in a line: Clinical injection site and administration reactions of TH-302. It is filed as in vivo, human. The text has this: Care in the administration of TH 302 will reduce the chance of perivenous infiltration. If any signs or symptoms of extravasation occur, the administration of TH 302 should be immediately terminated and restarted in another vein. TH 302 should always be administered via a freely flowing i.v. line, preferably, where feasible, through a central venous catheter. Administration through small veins, particularly on the hands and feet is discouraged. Because of the progressive nature of extravasation reactions, close observation and plastic surgery consultation is recommended.
TH 302 administration reactions have been observed. […] It is recommended that a steroid such as dexamethasone (or equivalent) be included in the antiemetic regimen prior to administration. Symptoms and signs of hypersensitivity include fever, myalgia, headache, rash, pruritus, urticaria, angioedema, chest discomfort, dyspnea, coughing, cyanosis, and hypotension. If the nature and the severity of the reaction require termination of treatment, it should be determined if the reaction may or may not be an immunoglobulin E mediated process. […] If the event is clearly anaphylaxis, then epinephrine ( 1/1000, 0.3 to 0.5 mL given subcutaneously or equivalent) should be considered as well as standard treatment approaches. […] Reactions to the administration of TH 302 should be assessed and treated in a similar manner. […]

In series [10] the test system is pancreatic ductal adenocarcinoma (PDAC). The conditions noted are these: TH-302 added to gemcitabine (GEM) versus GEM only; cited from earlier work.
For a further series, the system named is pancreatic cancer. The conditions noted are these: Phase 3 trial, pancreatic cancer patients; cited from earlier work.
[11] abbreviates: MIA PaCa-2, TV 1000 mm^3 as endpoint.
The mark [12] stands for this setting: PANC-1, TV 1000 mm^3 as endpoint.

Marks after values point to notes of the source that are not given here.

As for `Cn1c(COP(=O)(NCCBr)NCCBr)cnc1[N+](=O)[O-]` [TH-302, (2-bromoethyl)({[(2-bromoethyl)amino][(2-nitro-3-methylimidazol-4-yl)methoxy]phosphoryl})amine], the “MT (Median Time to reaching the size of 1000 mm^3)” value in series [1] (TV 1000 mm^3 as endpoint) was 59.5*^,a day; in series [1] (TV 1000 mm^3 as endpoint, listed as T), 59.5 days; in series [2] (setting [11]), 34 days; in [3] (setting [12]), 31 days; in series [4] (TV 1000 mm^3 as endpoint) it was 24 days. For the same molecule, the “TGD1000 (vs. vehicle)” value in [1] (Q3D×5, delay of mean tumor size to 1000 mm^3) was 47 days; in [2] (MIA PaCa-2, Q3D×5), 6 days; in series [3] (PANC-1, Q3D×5), 7 days; in series [4] (Q3D×5) it was 11 days. For the same molecule, the “TGI (Tumor Growth Inhibition)” value in series [1] (Q3D×5) is reported as 82.1%*; in series [1] (Q3D×5, listed as T), 82.1%; in series [2] (MIA PaCa-2, T 50 mg/kg i.p., nP 30 mg/kg i.v., G 60 mg/kg i.p., Q3D×5), 27%; in [3] (PANC-1, T 50 mg/kg i.p., nP 30 mg/kg i.v., G 60 mg/kg i.p., Q3D×5), 44.5%; in series [4] (T 50 mg/kg i.p., nP 30 mg/kg i.v., G 60 mg/kg i.p., Q3D×5), 43%. In addition, the “ILS (Increased Life Span)” value in [1] (TV 1000 mm^3 as endpoint) is 297%; in series [2] (setting [11]), 26%; in series [3] (setting [12]), 48%; in [4] (TV 1000 mm^3 as endpoint), 52%. Besides, the “CR (Complete Response) of 10” value in [1] (tumor gone or <100 mm^3), in series [2] (MIA PaCa-2), in [3] (PANC-1) and in series [4] was 0 of 10 in each case. The CR rate in series [2] (MIA PaCa-2 model) and in series [3] (PANC-1 model) was 0% in each case. For the same molecule, the “maximal body weight loss” value in series [5] (BxPC3, Nude ♀ (n = 10)) is recorded as 0%; in series [5] (Hs766t, Nude ♀ (n = 10)), 0%; in [5] (MIA PaCa-2, Nude ♀ (n = 10)) it was 0%; in series [5] (Non-tumor CD-1 ♀ (n = 6)) it was 0%; in series [5] (Non-tumor CD-1 ♂ (n = 10)), 0%; in series [5] (PANC-1 #1, Nude ♀ (n = 10)) it was 0%. The “maximal body weight loss” value in series [5] (PANC-1 #2, Nude ♀ (n = 5)) worked out at 0%; in series [5] (PANC-1 #3, Nude ♀ (n = 10)), 0%. The “maximal BW loss (percentage of mean maximal BW loss compared with pretreatment)” value in [5] (across the 8 studies, G+nP range in 7 of 8 studies) is reported as 0%. For the same molecule, the “neutrophils, lymphocytes, monocytes and complete white blood cell count (WBC)” value in [6] is on record as “reduced”. Besides, in the series on PANC-1 xenograft tumors (V less than 4), the “γH2AX-positive cells (DNA damage)” value turned out to be 19 positive cells/field. In addition, the “extracellular collagen (Picrosirius red staining)” value in the series with PANC-1 xenograft tumors (morphometric analysis) is “no effect”. Besides, the “α-SMA expression (activated fibroblasts in stroma)” value in the series on PANC-1 xenograft tumors (morphometric analysis) was “no effect”. Further, the “number of apoptotic cells (TUNEL assay)” value with PANC-1 xenograft tumors (non-necrotic regions, V 0.8±0.1) is 3±0.2 per field. For the same molecule, in the series with PANC-1 xenograft tumors (one day after last treatment, V 9%), the “tumor necrotic fraction (Masson's Trichrome histology staining)” value is recorded as 35%. Besides, the “hypoxic fraction (HF)” value in the series on PANC-1 xenograft tumors (pimonidazole, V 12.4+2%) is recorded as 10.6±1.1%. The hind-paw mechanical hyperalgesia result in series [7] was “no mechanical hyperalgesia”. Besides, in series [8], the “sensitivity to TH-302” value is listed as “Enhanced sensitivity”. Further, the “injection site reactions reported” value in series [9] (i.v. administration) was “Supravenous erythema and hyperpigmentation”. For the same molecule, the administration reactions observed result in series [9] (responded to steroid and antihistamine treatment) was “lip swelling and urticaria”. Moreover, in series [10], the progression-free survival entry is given as “significant increase”.
Regarding `Nc1ccn([C@@H]2O[C@H](CO)[C@@H](O)C2(F)F)c(=O)n1` [gemcitabine], the median overall survival in the series on pancreatic cancer is 6.6 months.
